Data from publication PMC5861220, “The Cytochrome P450-Mediated Metabolism Alternation of Four Effective Lignans From Schisandra chinensis in Carbon Tetrachloride-Intoxicated Rats and Patients With Advanced Hepatocellular Carcinoma” (Frontiers in Pharmacology, 2018).

Legend:
[1] = tested on: rat intestine (jejunum segment); test: In situ intestinal perfusion of four lignans; type: in vivo; conditions: for Perfusate (Percent of the initial dose) / Plasma (Percent of the initial dose) / Intestine (Percent of the initial dose) / Pblood / Plumen: 50 μM, n = 3; for Perfusate (Percent of the initial dose): intestinal perfusion 60 min; for Plasma (Percent of the initial dose) / Intestine (Percent of the initial dose) / Rise of cumulative plasma amount: intestinal perfusion; for Plasma (Percent of the initial dose): mesenteric vein blood; for Increase of remaining amount in perfusate: intestinal autoperfusion (60 min), CCl4-treated rats vs control; for Rise of cumulative plasma amount: CCl4-intoxicated rats vs control
Procedure: The surgical procedures of intestinal perfusion were conducted according to those published reports (Savina et al., [1981]). Hank's balanced salt solution (HBSS, pH 7.4) with four schisandra lignans (50 μM) at 37°C was infused into the jejunum segment at rate of 0.3 mL/min. Phenol Red (50 μM) was added to serve as a nonabsorbable marker for measuring water flux. Blood samples from mesenteric vein and perfusate were collected at 5-min interval. The plasma separated by centrifugation and perfusate was stored at −20°C until HPLC-MS analysis.
The permeability of four lignans across the rat intestine was calculated based on the disappearance of parent drug from the lumen (Plumen) as well as the appearance of the drug in blood (Pblood) using the following equations (Singhal et al., [1998]):
(1) Plumen = −Q/2πrlLnCout/Cin
(1) Pblood = ΔMB/Δt/2πrl{C}
where r is the radius of the perfused intestinal lumen; l is the length of the segment; Q is the flow rate of perfusate; Cin is the concentration of drug at the start of perfusion; and Cout is the steady-state concentration of drug exiting the lumen. ΔMB/Δt is the rate of drug appearance in mesenteric blood; and {C} is the logarithmic mean concentration of drug in the lumen.

P-glycoprotein (P-gp) = test: P-gp substrate assessment from Caco-2 transport (Papp and ER); type: in vitro ADME; conditions: Caco-2 cell monolayer, 5, 10 and 50 μM
Procedure: Caco-2 cell (passage 38) was used in the transport experiments. Cells were seeded on polycarbonate filters (12 mm diameter, pore size […]) at 1 × 10^5/cm^2. The cell monolayer was formed 21 days post seeding when the transepithelial electrical resistance (TEER) was above 1,000 Ω• cm^2. Three concentration levels (5, 10, and 50 μM) were set for the four schisandra lignans in the study. After preincubation for 1 h at 37°C, the solution of the four lignans was respectively added to the apical (0.4 mL) or basolateral (0.6 mL) chamber for absorptive (AP → BL) and secretive (BL → AP) permeability test. At the specified timepoints (0.5, 1, 1.5 and 2 h), 50 μL samples (n = 3) were withdrawn from receiver chamber, and meanwhile, 50 μL fresh buffer was added. The four lignans were determined by HPLC-MS method.
The apparent permeability coefficient (Papp) in the Caco-2 cell was calculated by the formula Papp = (ΔQ/Δt)/AC0, where ΔQ/Δt is the transport rate (nmol/s), which remained approximately constant in time, A is the well membrane area (0.6 cm^2), and C0 is the initial concentration of the four lignans (μM). The efflux rate (ER) was calculated by the formula ER = Papp (BL → AP)/Papp(AP → BL).

Row | SMILES | Perfusate (Percent of the initial dose) ([1]; CCl4-intoxicated rats) | Plasma (Percent of the initial dose) ([1]; CCl4-intoxicated rats) | Intestine (Percent of the initial dose) ([1]; CCl4-intoxicated rats) | Pblood ([1]; CCl4-intoxicated rats) | Plumen ([1]; CCl4-intoxicated rats) | Perfusate (Percent of the initial dose) ([1]; Control rats) | Plasma (Percent of the initial dose) ([1]; Control rats) | Intestine (Percent of the initial dose) ([1]; Control rats) | Pblood ([1]; Control rats) | Plumen ([1]; Control rats) | Increase of remaining amount in perfusate [1] | Rise of cumulative plasma amount [1] | P-glycoprotein (P-gp) substrate classification according to Papp and ER (P-glycoprotein (P-gp))
1 | COc1cc2c(c(OC)c1OC)-c1c(cc(OC)c(OC)c1OC)C[C@H](C)[C@@H](C)C2 [Deoxyshisandrin, deoxyshisandrin] | 91.77 ± 1.59% of the initial dose | 0.83 ± 0.06% of the initial dose | 1.79 ± 0.41% of the initial dose | 0.063 ± 0.018 × 10^−4 cm/s | 2.270 ± 0.363 × 10^−4 cm/s | 81.69 ± 1.77% of the initial dose | 0.51 ± 0.03% of the initial dose | 1.69 ± 0.30% of the initial dose | 0.053 ± 0.009 × 10^−4 cm/s | 2.337 ± 0.211 × 10^−4 cm/s | about 10% | ~63% | some efflux trend
2 | COc1cc2c(c(OC)c1OC)-c1c(cc(OC)c(OC)c1OC)C[C@](C)(O)[C@@H](C)C2 [Schisandrin, schisandrin] | 93.40 ± 1.05% of the initial dose | 0.84 ± 0.06% of the initial dose | 1.98 ± 0.13% of the initial dose | 0.063 ± 0.008 × 10^−4 cm/s | 2.420 ± 0.788 × 10^−4 cm/s | 86.16 ± 1.39% of the initial dose | 0.44 ± 0.06% of the initial dose | 2.22 ± 0.96% of the initial dose | 0.046 ± 0.008 × 10^−4 cm/s | 2.490 ± 0.141 × 10^−4 cm/s | about 10% | about 91% | –
